Measured values taken from the NIST ThermoML archive (doi:10.1016/j.jct.2013.09.039).

Conditions: Liquid, Vibrating tube method

Cc1ccc(C)cc1 [1,4-dimethylbenzene]
mass density [kg/m3]
Conditions	100 kPa	5000 kPa	10000 kPa	20000 kPa	30000 kPa	40000 kPa
288.15 K	864.9	868.3	871.8	878.1	884	889.7
298.15 K	856.2	860.2	863.5	870.1	876.5	882.2
308.15 K	847.5	851.4	855.2	862.1	868.6	874.8
